Reference: patent US5932742A, “Arylsulfonylimidazolone derivatives as an antitumor agent” (priority 1996, dated 1999)
In brackets after ≈: the same amount, converted by molar mass. Counter-ions that a name gives are not always drawn. Like-named read-outs stand apart in the source and are kept apart here.

Legend:
[1] = test system: P388 murine leukemia cells; assay: In vivo antitumor activity against P388 murine leukemia cell; design: species or system BDF1 mouse; details: once per 2 days for 10 days, median survival time
Description: In vivo antitumor activity against P388 murine leukemia cell
P388 murine leukemia cells were injected into BDF1 mouse intraperitoneally and grown in the peritoneal cavity. The P388 cells were periodically exudated and reinjected intraperitoneally into mouse for subculture.
The cells were exudated, washed, resuspended in saline (2×10^7 cells/ml), and then injected intraperitoneally again into BDF1 mouse (2×10^6 cells/0.1 ml).
Test compound dissolved in appropriate vehicle was administered intraperitonealy or orally into the mouse which was implanted with P388 murine leukemia tumor cells in the frequency of once per 2 days for 10 days. The vehicle was administered into the mouse of control group. Then, the number of live animals were daily checked to estimate the median survival time (MST).
T/C ratio(%) of each test compound was calculated according to the following formula, and the test results are shown in Table 6.
T/C(%)=(MST of test group.div.MST of control group)×100

[2] = test system: K562 (ATCC CCL 243): human chronic myelogenous leukemia; assay: In vitro antitumor activity, MTT assay, K562; format: cell-based; details: Homo sapiens, K562, 48 h, Table 3, read-out: IC50 (K562)
Description: (§1) In vitro antitumor activity against human tumor cell lines
(§2) In vitro antitumor activity of the compounds according to the present invention was determined by MTT assay method against the following human tumor cell lines:
K562 (ATCC CCL 243): human chronic myelogenous leukemia
(§3) In this test, the known antineoplastic compounds, Doxorubicin and Sulofenur, were used as the comparative agents.
(§4) Each of the tumor cells was cultured in RPMI 1640 media containing 10% fetal bovine serum, 100 IU/ml penicillin and 100 μg/ml streptomycin, and then periodically subcultured once or twice per week in trypsin-EDTA solution containing 0.05% trypsin and 0.53mM EDTA.4Na. The human tumor cell line thus obtained (10,000cells/100 μl) was plated on 96-well microplate and then cultured for 24 hrs at 37° C. in a 5% CO2 incubator. Test compound was dissolved in DMSO, sterilized with 0.22 μm PVDF filter, and then serially 5-fold diluted from 40 μg/ml to 0.00256μg/ml. 100 μl of the sample solution thus prepared and RPMI 1640 medium only (control group) were added to 96-well microplate containing the human tumor cell, respectively. The final concentration of the test compound was in the range from 20 μg/ml to 0.00128 μg/ml and the concentration of DMSO was below 0.5%. The cells were cultured for 48 hrs at 37° C. in a 5% CO2 incubator. MTT(3-(4,5-Dimethylthiazole-2-yl)-e,5-diphenyltetrazoliumbromide) was dissolved in physiological saline in a concentration of 2 mg/ml and the resulting solution was filtered through 0.22 μm PTFE filter. 25 μl of MTT solution thus prepared was added to each well of 96-well microplate and incubated for additional 4 hrs at 37° C. in a 5% CO2 incubator. Then, the content of microplate was centrifuged at 1000 rpm for 10 min, and supernatant was removed by flicking. The formazan formed from MTT by mitochondrial succinate dehydrogenase was dissolved in 100 μl of DMSO. The absorbance of each well was measured at 540nm by micro ELISA reader and the cytotoxicity was calculated by dividing the absorbance of test group by the absorbance of control group. After the calculated cytotoxicity (%) was plotted, the concentration of 50% tumor growth inhibition concentration (IC50) was estimated by Linear-Regression method.

[3] = test system: SK-OV-3 (ATCC HTB 77): human ovarian adenocarcinoma; assay: In vitro antitumor activity, MTT assay, SK-OV-3; format: cell-based; details: for IC50: Homo sapiens
Description: as §1, §2
SK-OV-3 (ATCC HTB 77): human ovarian adenocarcinoma
as §3, §4

[4] = test system: Colo205 (ATCC CCL 222): human colon adenocarcinoma; assay: In vitro antitumor activity, MTT assay, Colo205; format: cell-based; details: for IC50: Homo sapiens
Description: as §1, §2
Colo205 (ATCC CCL 222): human colon adenocarcinoma
as §3, §4

[5] = test system: A549 (ATCC CCL 185): human lung carcinoma; assay: In vitro antitumor activity, MTT assay, A549; format: cell-based; details: for IC50: Homo sapiens, A549, 48 h
Description: as §1, §2
A549 (ATCC CCL 185): human lung carcinoma
as §3, §4

[6] = test system: KB (ATCC CCL 17): human epidermoid carcinoma; assay: In vitro antitumor activity, MTT assay, KB; format: cell-based; details: MTT, 48 hrs; for IC50: Homo sapiens, read-out: IC50 (KB)
Description: as §1, §2
KB (ATCC CCL 17): human epidermoid carcinoma
as §3, §4

[7] = COLO 205, Table 3, 48 hrs, read-out: IC50 (Col205)
[8] = COLO 205, Table 1, 48 hrs, read-out: IC50 (Colo205)
[9] = COLO 205, Table 2, 48 hrs, read-out: IC50 (Colo205)

Row | Structure (SMILES) | IC50 ([6]; Table 1) | IC50 ([3]; SK-OV-3, Table 1, 48 hrs) | IC50 [4, 8] | IC50 ([5]; Table 1) | IC50 ([6]; Table 2) | IC50 ([3]; SK-OV-3, Table 2, 48 hrs) | IC50 [4, 9] | IC50 ([5]; Table 2) | other results
1 | CCNC(=O)N1CCc2cc(S(=O)(=O)N3CC(c4ccccc4)NC3=O)ccc21 (stereo not drawn) [Example 29, 4-phenyl-1-(N-ethylcarbamoylindoline-5-sulfonyl)4,5-dihydro-2-imidazolone] |  |  |  |  |  |  |  |  | T/C rate (%) ([1]; 6.25 mg/kg i.p.): 113.6%; IC50 [2]: 1 µg/mL (≈ 2.42 µM); IC50 ([3]; SK-OV-3, Table 3, 48 hrs): 1.95 µg/mL (≈ 4.7 µM); IC50 [4, 7]: 1 µg/mL (≈ 2.42 µM); IC50 ([5]; Table 3): 0.318 µg/mL (≈ 0.767 µM)
2 | CC1Cc2cc(S(=O)(=O)n3cc(-c4ccccc4)[nH]c3=O)ccc2N1C(=O)c1ccc([N+](=O)[O-])cc1 (stereo not drawn) [Example 11, 4-phenyl-1-[N-(4-nitrobenzoyl)-2-methylindoline-5-sulfonyl]-2-imidazolone] | 0.64 µg/mL (≈ 1.27 µM) | 0.453 µg/mL (≈ 0.898 µM) | 1.11 µg/mL (≈ 2.2 µM) | 0.234 µg/mL (≈ 0.464 µM) |  |  |  |  | 
3 | CC1Cc2cc(S(=O)(=O)n3cc(-c4ccccc4)[nH]c3=O)ccc2N1C(=O)c1ccc(N)cc1 (stereo not drawn) [Example 12, 4-phenyl-1-[N-(4-aminobenzoyl)-2-methylindoline-5-sulfonyl]-2-imidazolone.HCl] | 0.072 µg/mL | 0.509 µg/mL | 0.861 µg/mL | 0.321 µg/mL |  |  |  |  | T/C rate (%) ([1]; 65 mg/kg p.o.): 115.4%
4 | O=C(Nc1ccccc1)N1CCc2cc(S(=O)(=O)N3CC(c4ccccc4)NC3=O)ccc21 (stereo not drawn) [Example 34, 4-phenyl-1-(N-phenylcarbamoylindoline-5-sulfonyl)-4,5-dihydro-2-imidazolone] |  |  |  |  |  |  |  |  | T/C rate (%) ([1]; 6.25 mg/kg i.p.): 140.9%; IC50 [2]: < 0.0064 µg/mL; IC50 ([3]; SK-OV-3, Table 3, 48 hrs): 0.16 µg/mL (≈ 0.346 µM); IC50 [4, 7]: 1.26 µg/mL (≈ 2.72 µM); IC50 ([5]; Table 3): 0.178 µg/mL (≈ 0.385 µM)
5 | CCNC(=O)N1c2ccc(S(=O)(=O)n3cc(-c4ccccc4)[nH]c3=O)cc2CC1C (stereo not drawn) [Example 3, 4-phenyl-1-(N-ethylcarbamoyl-2-methylindoline-5-sulfonyl)-2-imidazolone] | 0.006 µg/mL (≈ 0.0141 µM) | 0.509 µg/mL (≈ 1.19 µM) | 0.265 µg/mL (≈ 0.621 µM) | 0.111 µg/mL (≈ 0.26 µM) |  |  |  |  | 
6 | CC(C)NCC(=O)N1c2ccc(S(=O)(=O)n3cc(-c4ccccc4)[nH]c3=O)cc2CC1C (stereo not drawn) [Example 23, 4-phenyl-1-(N-isopropylaminoacetyl-2-methylindoline-5-sulfonyl)-2-imidazolone.HCl] |  |  |  |  | 0.429 µg/mL | 4.03 µg/mL | 3.45 µg/mL | 1.14 µg/mL | 
7 | O=C(CCl)Nc1ccc(C(=O)N2CCc3cc(S(=O)(=O)n4cc(-c5ccccc5)[nH]c4=O)ccc32)cc1 [Example 19, 4-phenyl-1-[N-(4-chloroacetylaminobenzoyl)indoline-5-sulfonyl]-2-imidazolone] |  |  |  |  | 0.046 µg/mL (≈ 0.0857 µM) | 0.202 µg/mL (≈ 0.376 µM) | 0.58 µg/mL (≈ 1.08 µM) | 0.438 µg/mL (≈ 0.816 µM) | 
8 | O=C(c1ccco1)N1CCc2cc(S(=O)(=O)n3cc(-c4ccccc4)[nH]c3=O)ccc21 [Example 16, 4-phenyl-1-(N-furanoylindoline-5-sulfonyl)-2-imidazolone] |  |  |  |  |  |  |  |  | IC50 (KB) ([6]; Table 1): 0.011 µg/mL (≈ 0.0253 µM); IC50 (SK-OV-3) ([3]; Table 1, 48 hrs): 2.074 µg/mL (≈ 4.76 µM); IC50 (Colo205) ([4]; Table 1, 48 hrs): 0.460 µg/mL (≈ 1.06 µM); IC50 (A549) ([5]; Table 1, 48 hrs): 0.065 µg/mL (≈ 0.149 µM)
9 | O=C(c1ccc(Cl)cc1)N1CCc2cc(S(=O)(=O)n3cc(-c4ccccc4)[nH]c3=O)ccc21 [Example 18, 4-phenyl-1-[N-(4-chlorobenzoyl)indoline-5-sulfonyl]-2-imidazolone] |  |  |  |  | 0.13 µg/mL (≈ 0.271 µM) | > 20 µg/mL | 2.05 µg/mL (≈ 4.27 µM) | 0.607 µg/mL (≈ 1.26 µM) | 
